Literature values in patent publication US20040048853A1, “Compounds, compositions, and methods” (priority 2002, published 2004).

Test system: A549 cells

GI50 [nM] | SMILES
1000 | O=c1[nH]cc(F)c(=O)[nH]1 [5-fluorouracil]
63 | COc1cccc2c1C(=O)c1c(O)c3c(c(O)c1C2=O)C[C@@](O)(C(=O)CO)C[C@@H]3O[C@H]1C[C@H](N)[C@H](O)[C@H](C)O1 [doxorubicin]
500000 | NC(=O)NO [hydroxyurea]
4 | CC(=O)O[C@H]1C(=O)[C@@]2(C)[C@H]([C@H](OC(=O)c3ccccc3)[C@]3(O)C[C@H](OC(=O)[C@H](O)[C@@H](NC(=O)c4ccccc4)c4ccccc4)C(C)=C1C3(C)C)[C@]1(OC(C)=O)CO[C@@H]1C[C@@H]2O [paclitaxel]
